Results: the NIST ThermoML archive (doi:10.1021/je0498208)
± gives the expanded uncertainty stated by the source.

Experiment: xn = mol fraction of the nth substance listed
Settings: Liquid; for viscosity: 101 kPa; for mass density: 101.3 kPa

O=CN1CCOCC1 [N-formylmorpholine] + O
viscosity (298.15 K, x1 = 0.0499): 1.45 ± 0.04 mPa·s
viscosity (298.15 K, x1 = 0.1007): 2.22 ± 0.06 mPa·s
viscosity (298.15 K, x1 = 0.1976): 3.82 ± 0.11 mPa·s
viscosity (298.15 K, x1 = 0.3006): 5.05 ± 0.14 mPa·s
viscosity (298.15 K, x1 = 0.3917): 5.95 ± 0.17 mPa·s
viscosity (298.15 K, x1 = 0.5001): 6.53 ± 0.18 mPa·s
viscosity (298.15 K, x1 = 0.5834): 6.81 ± 0.19 mPa·s
viscosity (298.15 K, x1 = 0.6969): 7.25 ± 0.2 mPa·s
viscosity (298.15 K, x1 = 0.7942): 7.27 ± 0.2 mPa·s
viscosity (298.15 K, x1 = 0.9047): 7.53 ± 0.21 mPa·s
viscosity (298.15 K, x1 = 0.9493): 7.7 ± 0.22 mPa·s
viscosity (298.15 K, x1 = 1): 7.87 ± 0.22 mPa·s
mass density (298.15 K, x1 = 0.0499): 1038.7 ± 0.18 kg/m3
mass density (298.15 K, x1 = 0.1007): 1067.03 ± 0.22 kg/m3
mass density (298.15 K, x1 = 0.1976): 1099.55 ± 0.31 kg/m3
mass density (298.15 K, x1 = 0.3006): 1117.88 ± 0.42 kg/m3
mass density (298.15 K, x1 = 0.3917): 1127.34 ± 0.51 kg/m3
mass density (298.15 K, x1 = 0.5001): 1134.34 ± 0.63 kg/m3
mass density (298.15 K, x1 = 0.5834): 1137.94 ± 0.72 kg/m3
mass density (298.15 K, x1 = 0.6969): 1141.28 ± 0.85 kg/m3
mass density (298.15 K, x1 = 0.7942): 1143.43 ± 0.95 kg/m3
mass density (298.15 K, x1 = 0.9047): 1145.19 ± 1.1 kg/m3
mass density (298.15 K, x1 = 0.9493): 1145.97 ± 1.1 kg/m3
mass density (298.15 K, x1 = 1): 1146.62 ± 1.2 kg/m3
viscosity (303.15 K, x1 = 0.0499): 1.29 ± 0.04 mPa·s
viscosity (303.15 K, x1 = 0.1007): 1.85 ± 0.05 mPa·s
viscosity (303.15 K, x1 = 0.1976): 3.33 ± 0.1 mPa·s
viscosity (303.15 K, x1 = 0.3006): 4.31 ± 0.12 mPa·s
viscosity (303.15 K, x1 = 0.3917): 5.04 ± 0.14 mPa·s
viscosity (303.15 K, x1 = 0.5001): 5.54 ± 0.16 mPa·s
viscosity (303.15 K, x1 = 0.5834): 5.79 ± 0.16 mPa·s
viscosity (303.15 K, x1 = 0.6969): 6.02 ± 0.17 mPa·s
viscosity (303.15 K, x1 = 0.7942): 6.21 ± 0.18 mPa·s
viscosity (303.15 K, x1 = 0.9047): 6.46 ± 0.19 mPa·s
viscosity (303.15 K, x1 = 0.9493): 6.62 ± 0.19 mPa·s
viscosity (303.15 K, x1 = 1): 6.75 ± 0.2 mPa·s
mass density (303.15 K, x1 = 0.0499): 1036.24 ± 0.18 kg/m3
mass density (303.15 K, x1 = 0.1007): 1063.95 ± 0.21 kg/m3
mass density (303.15 K, x1 = 0.1976): 1095.78 ± 0.31 kg/m3
mass density (303.15 K, x1 = 0.3006): 1113.82 ± 0.41 kg/m3
mass density (303.15 K, x1 = 0.3917): 1123.11 ± 0.51 kg/m3
mass density (303.15 K, x1 = 0.5001): 1130.03 ± 0.63 kg/m3
mass density (303.15 K, x1 = 0.5834): 1133.6 ± 0.72 kg/m3
mass density (303.15 K, x1 = 0.6969): 1136.91 ± 0.84 kg/m3
mass density (303.15 K, x1 = 0.7942): 1139.05 ± 0.95 kg/m3
mass density (303.15 K, x1 = 0.9047): 1140.81 ± 1.1 kg/m3
mass density (303.15 K, x1 = 0.9493): 1141.6 ± 1.1 kg/m3
mass density (303.15 K, x1 = 1): 1142.26 ± 1.2 kg/m3
viscosity (313.15 K, x1 = 0.0499): 1.038 ± 0.031 mPa·s
viscosity (313.15 K, x1 = 0.1007): 1.52 ± 0.05 mPa·s
viscosity (313.15 K, x1 = 0.1976): 2.44 ± 0.07 mPa·s
viscosity (313.15 K, x1 = 0.3006): 3.23 ± 0.09 mPa·s
viscosity (313.15 K, x1 = 0.3917): 3.77 ± 0.11 mPa·s
viscosity (313.15 K, x1 = 0.5001): 4.19 ± 0.12 mPa·s
viscosity (313.15 K, x1 = 0.5834): 4.33 ± 0.13 mPa·s
viscosity (313.15 K, x1 = 0.6969): 4.55 ± 0.13 mPa·s
viscosity (313.15 K, x1 = 0.7942): 4.7 ± 0.14 mPa·s
viscosity (313.15 K, x1 = 0.9047): 4.9 ± 0.15 mPa·s
viscosity (313.15 K, x1 = 0.9493): 5.03 ± 0.15 mPa·s
viscosity (313.15 K, x1 = 1): 5.13 ± 0.15 mPa·s
mass density (313.15 K, x1 = 0.0499): 1030.93 ± 0.17 kg/m3
mass density (313.15 K, x1 = 0.1007): 1057.44 ± 0.21 kg/m3
mass density (313.15 K, x1 = 0.1976): 1088.06 ± 0.3 kg/m3
mass density (313.15 K, x1 = 0.3006): 1105.52 ± 0.41 kg/m3
mass density (313.15 K, x1 = 0.3917): 1114.62 ± 0.5 kg/m3
mass density (313.15 K, x1 = 0.5001): 1121.35 ± 0.62 kg/m3
mass density (313.15 K, x1 = 0.5834): 1124.87 ± 0.71 kg/m3
mass density (313.15 K, x1 = 0.6969): 1128.16 ± 0.83 kg/m3
mass density (313.15 K, x1 = 0.7942): 1130.3 ± 0.94 kg/m3
mass density (313.15 K, x1 = 0.9047): 1132.07 ± 1.1 kg/m3
mass density (313.15 K, x1 = 0.9493): 1132.87 ± 1.1 kg/m3
mass density (313.15 K, x1 = 1): 1133.53 ± 1.2 kg/m3
viscosity (323.15 K, x1 = 0.0499): 0.854 ± 0.026 mPa·s
viscosity (323.15 K, x1 = 0.1007): 1.23 ± 0.04 mPa·s
viscosity (323.15 K, x1 = 0.1976): 1.95 ± 0.06 mPa·s
viscosity (323.15 K, x1 = 0.3006): 2.5 ± 0.07 mPa·s
viscosity (323.15 K, x1 = 0.3917): 2.88 ± 0.08 mPa·s
viscosity (323.15 K, x1 = 0.5001): 3.21 ± 0.09 mPa·s
viscosity (323.15 K, x1 = 0.5834): 3.35 ± 0.1 mPa·s
viscosity (323.15 K, x1 = 0.6969): 3.53 ± 0.1 mPa·s
viscosity (323.15 K, x1 = 0.7942): 3.67 ± 0.11 mPa·s
viscosity (323.15 K, x1 = 0.9047): 3.86 ± 0.12 mPa·s
viscosity (323.15 K, x1 = 0.9493): 4.01 ± 0.12 mPa·s
viscosity (323.15 K, x1 = 1): 4.03 ± 0.12 mPa·s
mass density (323.15 K, x1 = 0.0499): 1025.15 ± 0.17 kg/m3
mass density (323.15 K, x1 = 0.1007): 1050.64 ± 0.21 kg/m3
mass density (323.15 K, x1 = 0.1976): 1080.16 ± 0.3 kg/m3
mass density (323.15 K, x1 = 0.3006): 1097.1 ± 0.4 kg/m3
mass density (323.15 K, x1 = 0.3917): 1105.98 ± 0.5 kg/m3
mass density (323.15 K, x1 = 0.5001): 1114.62 ± 0.62 kg/m3
mass density (323.15 K, x1 = 0.5834): 1116.08 ± 0.7 kg/m3
mass density (323.15 K, x1 = 0.6969): 1119.37 ± 0.83 kg/m3
mass density (323.15 K, x1 = 0.7942): 1121.52 ± 0.93 kg/m3
mass density (323.15 K, x1 = 0.9047): 1123.33 ± 1.1 kg/m3
mass density (323.15 K, x1 = 0.9493): 1124.14 ± 1.1 kg/m3
mass density (323.15 K, x1 = 1): 1124.82 ± 1.2 kg/m3
viscosity (333.15 K, x1 = 0.0499): 0.715 ± 0.022 mPa·s
viscosity (333.15 K, x1 = 0.1007): 1.018 ± 0.031 mPa·s
viscosity (333.15 K, x1 = 0.1976): 1.57 ± 0.05 mPa·s
viscosity (333.15 K, x1 = 0.3006): 2.1 ± 0.06 mPa·s
viscosity (333.15 K, x1 = 0.3917): 2.41 ± 0.07 mPa·s
viscosity (333.15 K, x1 = 0.5001): 2.65 ± 0.08 mPa·s
viscosity (333.15 K, x1 = 0.5834): 2.73 ± 0.08 mPa·s
viscosity (333.15 K, x1 = 0.6969): 2.84 ± 0.08 mPa·s
viscosity (333.15 K, x1 = 0.7942): 2.96 ± 0.09 mPa·s
viscosity (333.15 K, x1 = 0.9047): 3.2 ± 0.1 mPa·s
viscosity (333.15 K, x1 = 0.9493): 3.21 ± 0.1 mPa·s
viscosity (333.15 K, x1 = 1): 3.25 ± 0.1 mPa·s
mass density (333.15 K, x1 = 0.0499): 1018.01 ± 0.17 kg/m3
mass density (333.15 K, x1 = 0.1007): 1043.55 ± 0.21 kg/m3
mass density (333.15 K, x1 = 0.1976): 1072.05 ± 0.3 kg/m3
mass density (333.15 K, x1 = 0.3006): 1088.55 ± 0.4 kg/m3
mass density (333.15 K, x1 = 0.3917): 1097.24 ± 0.49 kg/m3
mass density (333.15 K, x1 = 0.5001): 1103.8 ± 0.61 kg/m3
mass density (333.15 K, x1 = 0.5834): 1107.26 ± 0.7 kg/m3
mass density (333.15 K, x1 = 0.6969): 1110.55 ± 0.82 kg/m3
mass density (333.15 K, x1 = 0.7942): 1112.72 ± 0.93 kg/m3
mass density (333.15 K, x1 = 0.9047): 1114.57 ± 1.1 kg/m3
mass density (333.15 K, x1 = 0.9493): 1115.4 ± 1.1 kg/m3
mass density (333.15 K, x1 = 1): 1116.11 ± 1.1 kg/m3
viscosity (343.15 K, x1 = 0.0499): 0.67 ± 0.021 mPa·s
viscosity (343.15 K, x1 = 0.1007): 0.857 ± 0.026 mPa·s
viscosity (343.15 K, x1 = 0.1976): 1.27 ± 0.04 mPa·s
viscosity (343.15 K, x1 = 0.3006): 1.8 ± 0.05 mPa·s
viscosity (343.15 K, x1 = 0.3917): 2.05 ± 0.06 mPa·s
viscosity (343.15 K, x1 = 0.5001): 2.26 ± 0.07 mPa·s
viscosity (343.15 K, x1 = 0.5834): 2.33 ± 0.07 mPa·s
viscosity (343.15 K, x1 = 0.6969): 2.37 ± 0.07 mPa·s
viscosity (343.15 K, x1 = 0.7942): 2.52 ± 0.08 mPa·s
viscosity (343.15 K, x1 = 0.9047): 2.67 ± 0.08 mPa·s
viscosity (343.15 K, x1 = 0.9493): 2.67 ± 0.08 mPa·s
viscosity (343.15 K, x1 = 1): 2.68 ± 0.08 mPa·s
mass density (343.15 K, x1 = 0.0499): 1011.38 ± 0.17 kg/m3
mass density (343.15 K, x1 = 0.1007): 1036.08 ± 0.2 kg/m3
mass density (343.15 K, x1 = 0.1976): 1063.72 ± 0.29 kg/m3
mass density (343.15 K, x1 = 0.3006): 1079.83 ± 0.4 kg/m3
mass density (343.15 K, x1 = 0.3917): 1088.36 ± 0.49 kg/m3
mass density (343.15 K, x1 = 0.5001): 1094.88 ± 0.6 kg/m3
mass density (343.15 K, x1 = 0.5834): 1098.33 ± 0.69 kg/m3
mass density (343.15 K, x1 = 0.6969): 1101.67 ± 0.81 kg/m3
mass density (343.15 K, x1 = 0.7942): 1103.88 ± 0.92 kg/m3
mass density (343.15 K, x1 = 0.9047): 1105.79 ± 1 kg/m3
mass density (343.15 K, x1 = 0.9493): 1106.66 ± 1.1 kg/m3
mass density (343.15 K, x1 = 1): 1107.39 ± 1.1 kg/m3
